Experimental data as given in patent publication EP4796125A1, “TREATMENT OF PATIENT WITH NEGATIVE P53 GENE MUTATION, POSITIVE KRAS GENE MUTATION AND POSITIVE BRCA MUTATION” (Ascentawits Pharmaceuticals, Ltd., priority 2023, dated 2025).

Assays:
HPAF-II cells = assay: Applicant's previous cancer cell proliferation inhibition test; assay type: cell-based; details: Homo sapiens, single drug, applicant's previous test data
[1] = tested on: γH2AX protein in H460 cells; assay: WB detection of γH2AX protein (DNA double-strand damage); assay type: cell-based; details: AST-3424 alone or with 5 µM Nutlin-3, dose-dependent (Figures 24-26)
Text: In the first experiment, the second experiment and the third experiment about the effect of the combination of AST-3424 and Nutlin-3 on Ser15-p53, Ser20-p53, Total p53, MDM2, and p21 proteins in H460 cells in Example 21, the applicant also performed WB detection of γH2AX protein.

[2] = tested on: H460 WT (H460 wild-type cells); assay: In vitro proliferation under normoxia (CTG, 72 hours), Example 26; assay type: cell-based; details: Homo sapiens, NCI-H460, Table 21, AST-3424 alone or + 3 µM AST-3021
Method: (§1) • 1) H460 cell suspension was added to a 96-well plate (100 µL per well), with a cell density of 2000 cells/well. • 2) The cells were cultured overnight in a 37°C, 5% CO2 incubator. • 3) Compound Treatment
(§2) Monotherapy: 24 hours after cell plating, each well was supplemented with 99.5 µL of growth medium. Then, 0.5 µL of test compounds at different concentrations was added. The plate was gently shaken to ensure even mixing, and then placed in a 37°C, 5% CO2 incubator.
Combination therapy: 24 hours after cell plating, each well was supplemented with 99 µL of growth medium. Then, 0.5 µL of the combination compound Nutlin-3 was added. The plate was gently shaken to ensure even mixing, and then placed in an incubator for 2 hours. Then, 0.5 µL of test compounds at different concentrations was added. […]

H460 P53 KO #12 = assay: as above; assay type: cell-based, human; details: Table 21
Method: as §1, §2
(§3) Combination therapy: 24 hours after cell plating, each well was supplemented with 99 µL of growth medium. Then, 0.5 µL of the combination compound Nutlin-3 was added. The plate was gently shaken to ensure even mixing, and then placed in an incubator for 2 hours. Then, 0.5 µL of test compounds at different concentrations was added. The plate was gently shaken to ensure even mixing, and then placed in a 37°C, 5% CO2 incubator. • 4) The cell plate was placed in the incubator for 72 hours. • 5) The cell plate to be tested was placed at room temperature and equilibrated for 30 minutes, and 100 µL of medium was discarded from each well. • 6) 25 µL of CTG reagent was added to each well, placed on a fast shaker to shake for 2 minutes, and placed at room temperature for 30 minutes (protected from light). • 7) The chemiluminescence signal value was read using a multifunctional microplate reader with a reading time of 1000 ms. • 8) IC50 values were calculated using Graph Pad Prism 5 software.
(§4) The p53 CRISPR/Cas9 KO plasmid (human) and p53 HDR plasmid (human) were purchased from Santa Cruz Company to construct H460 P53 KO cell lines, namely p53 knockout H460 cell lines. Three groups of H460 P53 KO cell lines were constructed and designated as H460 P53 KO # 1, H460 P53 KO # 7, and H460 P53 KO # 12.
(§5) The process for constructing p53 gene knockout cells is briefly described as follows: • H460 cells were plated in 6-well plates with 1 × 10^6 cells/well. • H460 cells were co-transfected with p53 CRISPR/Cas9 KO plasmid (h) (sc-416469) and p53 HDR plasmid (h) (sc-416469-HDR): 125 µL Opti-MEM + 1.25 µg each of the two plasmids + 5 µL P3000; 125 µL Opti-MEM + 15 µL liposome 3000 (increase volume, expected to increase transfection efficiency); they were co-incubated for 15 minutes, and then were added dropwise to the culture medium and mixed well.
(§6) After 48 h, 2 µg/mL puromycin was added for screening.
(§7) Two days later, the medium was replaced with fresh 1640 medium containing 1 µg/mL puromycin, and the medium was changed every two days.
(§8) When the cell colonies grew to a sufficient size, single colonies were picked and cultured.
(§9) When the cell number is sufficient, samples were collected for WB identification of the colonies. Colonies with no p53 expression were the p53 knockout H460 cell clones.
(§10) For the experimental procedures of this Example, please refer to the Experimental Procedure Overview in the section "Effects of compounds on in vitro H460 cell proliferation under normoxia" in Example 18.
(§11) Monotherapy: Compounds AST-3424/AST were separately administered in H460 and H460 P53 KO cell lines, respectively.
(§12) Combination therapy: Compounds AST-3424/AST were respectively used in combination with AST-3021, and respectively administeredin H460 and H460 P53 KO cell lines.
(§13) H460 P53 KO cell lines, i.e. H460 P53 KO # 1, H460 P53 KO # 7, H460 P53 KO # 12 cell lines, were used in experiments, respectively.

H460 P53 KO #1 = assay: as above; assay type: cell-based, human; details: Table 21
Method: as §1, §2, §3, §4, §5, §6, §7, §8, §9, §10, §11, §12, §13

H460 P53 KO #7 = assay: as above; assay type: cell-based, human; details: Table 21
Method: as §1, §2, §3, §4, §5, §6, §7, §8, §9, §10, §11, §12, §13

[3] = tested on: cell lines and mouse tumor models of BRCA pathogenic mutations; details: in vitro and in vivo pharmacodynamic experiments; data of WO2023174319A; cited from earlier work
[4] = tested on: cell lines and mouse tumor models of KRAS pathogenic mutations; details: in vitro and in vivo pharmacodynamic experiments; data of WO2023046060A1; cited from earlier work
[5] = tested on: PDX and CDX models with high expression of AKR1C3 enzyme; details: WO2023/046060, Examples 1-9; cited from earlier work

Compound: C[C@H](OP(=O)(N1CC1)N1CC1)c1ccc([N+](=O)[O-])c(Oc2cccc(C(=O)N(C)C)c2)c1 [AST-3424]
- IC50 (HPAF-II cells): 107 nM
- level of γH2AX protein [1]: upregulate
- IC50 [2]: 0.23 nM
- IC50 (H460 P53 KO #12; Homo sapiens, NCI-H460, H460 P53 KO # 12, AST-3424 alone or + 3 µM AST-3021): 1.99 nM
- Ratio (monotherapy), knockout/wild (H460 P53 KO #12; IC50 in H460 P53 KO # 12 / H460 WT): 8.65
- IC50 (H460 P53 KO #1; Homo sapiens, NCI-H460, H460 P53 KO # 1, AST-3424 alone or + 3 µM AST-3021): 11.3 nM
- Ratio (monotherapy), knockout/wild (H460 P53 KO #1; IC50 in H460 P53 KO # 1 / H460 WT): 49.13
- IC50 (H460 P53 KO #7; Homo sapiens, NCI-H460, H460 P53 KO # 7, AST-3424 alone or + 3 µM AST-3021): 23.1 nM
- Ratio (monotherapy), knockout/wild (H460 P53 KO #7; IC50 in H460 P53 KO # 7 / H460 WT): 100.43
- sensitivity of cell lines and mouse tumor models of BRCA pathogenic mutations [3]: more sensitive
- sensitivity of cell lines and mouse tumor models of KRAS pathogenic mutations [4]: more sensitive
- anti-tumor effects [5]: significant anti-tumor effects
- tolerability [5]: well tolerated
